Results as given in ChEMBL document CHEMBL1155011, “Structure-activity relationships of the cycloalkanol ethylamine scaffold: discovery of selective norepinephrine reuptake inhibitors” (J Med Chem, 2008).

How the values were obtained:
[1] = biological target: T1, Sodium-dependent noradrenaline transporter (Homo sapiens, UniProt P23975)
Description: Inhibition of norepinephrine uptake at human norepinephrine transporter expressed in MDCK-Net6 cells

[2] = biological target: T2, Sodium-dependent serotonin transporter (Homo sapiens, UniProt P31645); assay: Inhibition of 5HT uptake at human SERT expressed in human JAR cells at 1000 nM; assay type: cell-based
Target sequence in this assay (P31645 whole entry, looked up): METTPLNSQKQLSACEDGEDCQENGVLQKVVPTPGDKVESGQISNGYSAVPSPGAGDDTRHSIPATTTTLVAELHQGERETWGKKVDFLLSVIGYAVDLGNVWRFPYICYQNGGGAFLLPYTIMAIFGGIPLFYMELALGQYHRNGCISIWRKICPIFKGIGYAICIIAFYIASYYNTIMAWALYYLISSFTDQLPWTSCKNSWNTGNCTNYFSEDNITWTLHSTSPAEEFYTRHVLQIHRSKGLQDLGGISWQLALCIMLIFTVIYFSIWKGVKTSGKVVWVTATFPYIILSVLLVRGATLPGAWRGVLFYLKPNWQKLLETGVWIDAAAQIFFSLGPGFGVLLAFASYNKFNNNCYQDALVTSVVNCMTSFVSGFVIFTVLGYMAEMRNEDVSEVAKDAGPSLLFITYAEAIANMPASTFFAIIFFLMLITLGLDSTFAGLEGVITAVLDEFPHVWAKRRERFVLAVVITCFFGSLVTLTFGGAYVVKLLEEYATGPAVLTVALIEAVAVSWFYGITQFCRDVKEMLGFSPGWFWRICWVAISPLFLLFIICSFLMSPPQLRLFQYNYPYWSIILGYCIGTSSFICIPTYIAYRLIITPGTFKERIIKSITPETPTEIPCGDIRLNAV

[3] = biological target: T3, Sodium-dependent dopamine transporter (Homo sapiens, UniProt Q01959); assay: Displacement of [3H]WIN-35428 from human recombinant dopamine transporter expressed in CHO cells at 1000 nM; assay type: cell-based
[4] = biological target: T1, Sodium-dependent noradrenaline transporter; assay: biochemical
Description: Displacement of [3H]nisoxetine from human norepinephrine transporter expressed in MDCK-Net6 cells

[5] = biological target: T3, Sodium-dependent dopamine transporter; assay: biochemical
Transporter = Transporter (Rattus norvegicus, UniProt Q63380)
Description: Inhibition of norepinephrine uptake at rat brain norepinephrine transporter

Homo sapiens = organism: Homo sapiens; assay: Selectivity ratio of IC50 for human NET over IC50 for human SERT
[6] = biological target: T2, Sodium-dependent serotonin transporter; assay type: cell-based, JAR
Target sequence in this assay (P31645 whole entry): as the sequence (P31645 whole entry, looked up) above

T3 sequence (Q01959 whole entry): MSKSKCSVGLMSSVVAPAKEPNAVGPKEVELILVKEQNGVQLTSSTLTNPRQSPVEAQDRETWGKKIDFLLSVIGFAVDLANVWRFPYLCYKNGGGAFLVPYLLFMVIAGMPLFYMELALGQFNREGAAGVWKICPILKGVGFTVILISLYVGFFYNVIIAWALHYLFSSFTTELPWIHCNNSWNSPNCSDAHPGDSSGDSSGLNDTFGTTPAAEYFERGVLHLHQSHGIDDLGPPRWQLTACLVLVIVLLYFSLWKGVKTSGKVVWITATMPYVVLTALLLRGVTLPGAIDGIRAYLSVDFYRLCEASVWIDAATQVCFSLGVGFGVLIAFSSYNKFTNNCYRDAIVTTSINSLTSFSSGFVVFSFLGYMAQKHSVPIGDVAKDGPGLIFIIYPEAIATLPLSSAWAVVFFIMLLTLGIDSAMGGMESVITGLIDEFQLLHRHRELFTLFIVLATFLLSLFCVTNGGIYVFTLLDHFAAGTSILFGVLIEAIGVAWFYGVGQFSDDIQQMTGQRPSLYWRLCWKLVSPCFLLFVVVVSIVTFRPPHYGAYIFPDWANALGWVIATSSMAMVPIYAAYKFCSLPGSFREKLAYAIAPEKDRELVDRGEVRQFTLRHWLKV
T1 sequence (P23975 whole entry): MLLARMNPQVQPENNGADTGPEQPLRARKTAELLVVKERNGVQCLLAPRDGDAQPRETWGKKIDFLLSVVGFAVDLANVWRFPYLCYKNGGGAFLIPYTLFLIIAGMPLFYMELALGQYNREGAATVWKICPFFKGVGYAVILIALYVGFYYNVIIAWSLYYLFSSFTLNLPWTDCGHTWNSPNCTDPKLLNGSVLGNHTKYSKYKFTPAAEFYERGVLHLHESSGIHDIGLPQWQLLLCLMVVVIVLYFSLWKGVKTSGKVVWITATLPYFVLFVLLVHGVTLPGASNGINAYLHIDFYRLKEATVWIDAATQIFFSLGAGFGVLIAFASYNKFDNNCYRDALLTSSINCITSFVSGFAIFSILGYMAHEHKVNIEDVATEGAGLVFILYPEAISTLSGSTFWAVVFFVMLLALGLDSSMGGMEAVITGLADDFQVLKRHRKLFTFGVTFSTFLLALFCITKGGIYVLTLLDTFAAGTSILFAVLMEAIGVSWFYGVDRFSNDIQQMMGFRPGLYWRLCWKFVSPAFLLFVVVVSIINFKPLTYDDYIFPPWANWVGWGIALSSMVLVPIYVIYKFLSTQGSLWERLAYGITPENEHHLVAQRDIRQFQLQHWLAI
Chain of Transporter (Q63380 whole entry): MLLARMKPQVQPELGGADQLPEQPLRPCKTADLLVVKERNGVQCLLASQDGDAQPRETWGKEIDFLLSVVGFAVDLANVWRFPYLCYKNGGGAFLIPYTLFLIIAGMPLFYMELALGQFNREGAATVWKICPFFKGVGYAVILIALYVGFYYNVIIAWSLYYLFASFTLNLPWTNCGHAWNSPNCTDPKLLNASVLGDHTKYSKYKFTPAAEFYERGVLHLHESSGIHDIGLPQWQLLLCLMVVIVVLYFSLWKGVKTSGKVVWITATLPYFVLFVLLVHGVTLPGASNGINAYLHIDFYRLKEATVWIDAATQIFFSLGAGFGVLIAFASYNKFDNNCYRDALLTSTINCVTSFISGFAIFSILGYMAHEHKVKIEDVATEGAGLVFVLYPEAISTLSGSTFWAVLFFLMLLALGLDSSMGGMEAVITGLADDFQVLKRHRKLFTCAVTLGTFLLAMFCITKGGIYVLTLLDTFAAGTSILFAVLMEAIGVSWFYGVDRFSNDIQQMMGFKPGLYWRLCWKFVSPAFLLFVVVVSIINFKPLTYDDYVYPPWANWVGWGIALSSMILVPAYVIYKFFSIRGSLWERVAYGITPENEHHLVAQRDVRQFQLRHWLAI

Compound	IC50 [1]	inhibition [2]	Activity [3]	Ki [4]	Ki [5]	IC50 (Transporter)	Ratio IC50 (Homo sapiens)	IC50 [6]
CN1CCN(CC(c2cccc(C(F)(F)F)c2)C2(O)CCCCC2)CC1 (configuration not stated)	92 nM	28%	6%	61 nM				
CN(C)C[C@@H](c1cccc(Cl)c1)C1(O)CCCCC1			17%					
CN(C)CC(c1cccc(C(F)(F)F)c1)C1(O)CCCCC1 (configuration not stated)	32 nM		15%	21 nM		360 nM	16.7	534 nM
CN(C)C[C@H](c1cccc(Cl)c1)C1(O)CCCCC1			0%					

Now from value to compound:

IC50 [1]	inhibition [2]	Activity [3]	Ki [4]	Ki [5]	IC50 (Transporter)	Ratio IC50 (Homo sapiens)	IC50 [6]	Compound
29 nM	9%		14 nM	73 nM				CN1CCN(C[C@H](c2cccc(Cl)c2)C2(O)CCCCC2)CC1
94 nM	13%	4%	58 nM					OC1(C(CN2CCNCC2)c2cccc(C(F)(F)F)c2)CCCCC1 (configuration not stated)
58 nM			46 nM	53 nM			18800 nM	CN1CCN(CC(c2cccc(Cl)c2)C2(O)CCCCC2)CC1 (configuration not stated)
1290 nM	11%	15%	544 nM					OC1([C@@H](CN2CCNCC2)c2cccc(OC(F)(F)F)c2)CCCCC1
540 nM			214 nM	340 nM			6100 nM	OC1([C@@H](CN2CCNCC2)c2cccc(Cl)c2)CCCCC1
